Experimental data taken from patent publication US10138207B2, “Benzomorphan analogs and the use thereof” (priority 2012, dated 2018).
Like-named read-outs stand apart in the source and are kept apart here.

Tests used:
[1] = biological target: T1, human opioid receptor-like receptor (ORL-1) (Homo sapiens, UniProt P41146); assay: ORL-1 receptor radioligand binding assay ([3H]-nociceptin); settings: HEK-293 or CHO cells; bound in μM
T1 construct: host or cells: HEK-293
Method: Membranes from recombinant HEK-293 cells expressing the human opioid receptor-like receptor (ORL-1) (Perkin Elmer, Shelton, Conn.) are prepared by lysing cells in ice-cold hypotonic buffer (2.5 mM MgCl2, 50 mM HEPES, pH 7.4) (10 ml/10 cm dish) followed by homogenization with a tissue grinder/Teflon pestle. Membranes are collected by centrifugation at 30,000×g for 15 min at 4° C. and pellets resuspended in hypotonic buffer to a final concentration of 1-3 mg/ml. Protein concentrations are determined using the BioRad protein assay reagent with bovine serum albumen as standard. Aliquots of the ORL-1 receptor membranes are stored at −80° C.
Radioligand binding assays (screening and dose-displacement) use 0.1 nM [^3H]-nociceptin (Perkin Elmer, Shelton, Conn.; 87.7 Ci/mmole) with 12 μg membrane protein in a final volume of 500 μl binding buffer (10 mM MgCl2, 1 mM EDTA, 5% DMSO, 50 mM HEPES, pH 7.4). Non-specific binding is determined in the presence of […] unlabeled nociceptin (American Peptide Company). All reactions are performed in 96-deep well polypropylene plates for 1 h at room temperature. […] The data from screening and dose-displacement experiments are analyzed using Microsoft Excel and the curve fitting functions in GraphPad PRISM™, v. 3.0 or higher, respectively, or an in-house function for one-site competition curve-fitting.

[2] = biological target: T2, μ-opioid receptor (Homo sapiens, UniProt P35372); assay: μ-opioid receptor [35S]GTPγS functional assay, U-2 OS cells; type: biochemical; set-up: expressed in transfected cells; host or cells: U-2 OS; settings: U-2 OS cells; for EC50: read-out: GTPγS μ EC50; for Emax: relative to DAMGO, read-out: GTPγS μ Emax
[3] = biological target: T2, μ-opioid receptor; assay: μ-opioid receptor radioligand dose-displacement binding assay ([3H]-diprenorphine); set-up: expressed in transfected cells; host or cells: HEK-293 or CHO
Method: Radioligand dose-displacement binding assays for μ-opioid receptors used 0.3 nM [^3H]-diprenorphine (Perkin Elmer, Shelton, Conn.), with […] membrane protein/well in a final volume of 500 μl binding buffer (10 mM MgCl2, 1 mM EDTA, 5% DMSO, 50 mM HEPES, pH 7.4). Reactions were carried out in the absence or presence of increasing concentrations of unlabeled naloxone. All reactions were conducted in 96-deep well polypropylene plates for 2 hr at room temperature. […] The data were analyzed using the one-site competition curve fitting functions in GraphPad PRISM™ v. 3.0 or higher (San Diego, Calif.), or an in-house function for one-site competition curve-fitting.

[4] = biological target: T2, μ-opioid receptor; assay: μ-opioid receptor [35S]GTPγS functional assay, HEK-293 or CHO cells; settings: for Emax: read-out: GTPγS μ Emax
[5] = biological target: T3, κ opioid receptor (Homo sapiens, UniProt P41145); assay: κ-opioid receptor [35S]GTPγS functional assay, HEK-293 or CHO cells; type: biochemical; set-up: expressed in transfected cells; host or cells: U-2 OS (in-house membranes); settings: for Emax: relative to U69,593
[6] = biological target: T3, κ opioid receptor; assay: κ-opioid receptor [35S]GTPγS functional assay, U-2 OS cells; type: biochemical; set-up: expressed in transfected cells; host or cells: U-2 OS (in-house membranes); settings: U-2 OS cells; for EC50: bound in μM, read-out: GTPγS κ EC50; for Emax: relative to U69,593, read-out: GTPγS κ Emax
[7] = biological target: T3, κ opioid receptor; assay: biochemical; type: binding; set-up: expressed in transfected cells; host or cells: HEK 293 (in-house membrane prep); settings: HEK-293 or CHO cells
[8] = HEK-293 or CHO cells, read-out: Ki Opioid Receptor μ
[9] = HEK-293 or CHO cells, bound in μM, read-out: GTPγS κ EC50

T2 sequence (P35372 whole entry, species assumed): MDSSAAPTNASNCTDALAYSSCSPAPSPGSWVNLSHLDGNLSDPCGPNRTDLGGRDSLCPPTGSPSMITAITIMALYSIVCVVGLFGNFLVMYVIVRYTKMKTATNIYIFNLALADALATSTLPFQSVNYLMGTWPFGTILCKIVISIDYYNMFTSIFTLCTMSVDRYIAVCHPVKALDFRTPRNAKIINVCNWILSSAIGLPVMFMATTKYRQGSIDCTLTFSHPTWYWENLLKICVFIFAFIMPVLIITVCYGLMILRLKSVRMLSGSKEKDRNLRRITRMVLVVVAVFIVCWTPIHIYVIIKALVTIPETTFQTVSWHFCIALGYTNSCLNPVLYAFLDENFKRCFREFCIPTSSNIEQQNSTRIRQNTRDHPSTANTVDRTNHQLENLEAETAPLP
T3 sequence (P41145 whole entry): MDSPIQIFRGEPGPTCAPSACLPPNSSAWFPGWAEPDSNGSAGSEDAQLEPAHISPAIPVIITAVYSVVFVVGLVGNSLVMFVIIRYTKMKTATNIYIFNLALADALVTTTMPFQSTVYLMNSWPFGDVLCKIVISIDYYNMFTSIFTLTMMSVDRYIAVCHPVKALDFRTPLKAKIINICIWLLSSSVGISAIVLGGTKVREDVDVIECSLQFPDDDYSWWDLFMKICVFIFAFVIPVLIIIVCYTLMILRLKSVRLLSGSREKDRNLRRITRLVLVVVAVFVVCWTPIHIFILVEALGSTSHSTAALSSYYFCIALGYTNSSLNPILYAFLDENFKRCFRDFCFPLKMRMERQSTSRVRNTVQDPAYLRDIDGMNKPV
T1 sequence (P41146 whole entry): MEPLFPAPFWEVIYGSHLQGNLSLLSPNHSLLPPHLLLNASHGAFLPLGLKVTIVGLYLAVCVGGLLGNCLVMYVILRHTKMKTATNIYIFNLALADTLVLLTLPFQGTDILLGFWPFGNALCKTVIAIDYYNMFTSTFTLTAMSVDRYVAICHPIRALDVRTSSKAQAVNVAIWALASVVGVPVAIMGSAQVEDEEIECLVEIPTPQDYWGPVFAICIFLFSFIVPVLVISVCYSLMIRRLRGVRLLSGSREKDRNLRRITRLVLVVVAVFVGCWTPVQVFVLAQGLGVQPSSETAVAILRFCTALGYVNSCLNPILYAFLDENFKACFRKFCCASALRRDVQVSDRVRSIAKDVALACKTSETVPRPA

SMILES	Ki [1] [µM]	EC50 [2] [nM]	Emax [2] [%]	Ki [3, 8] [nM]	EC50 [4] [nM]	Emax [4] [%]	EC50 [5, 9] [µM]	Emax ([5]; HEK-293 or CHO cells) [%]	EC50 [6] [µM]	Emax [6] [%]	Ki [7] [nM]	EC50 ([5]; HEK-293 or CHO cells, read-out: GTPγS κ EC50) [µM]	Ki [3] [nM]	EC50 [5] [µM]
CN1CC[C@@]2(C)c3cc(O)ccc3C[C@@H]1[C@@H]2NCCc1ccc(S(N)(=O)=O)cc1 [Compound 92, 4-(2-(((2R,6S,11R)-8-hydroxy-3,6-dimethyl-1,2,3,4,5,6-hexahydro-2,6-methanobenzo[d]azocin-11-yl)amino)ethyl)benzenesulfonamide]	> 20	149 ± 25.5	97.3 ± 3.53	54.5 ± 17.3	68.9 ± 16	100 ± 3.12	> 20	3.5 ± 1.71	> 20	1	163 ± 3.83			
CN1CC[C@@]2(C)c3cc(O)ccc3C[C@@H]1[C@H]2NCCc1ccc(S(N)(=O)=O)cc1 [Compound 94, 4-(2-(((2R,6S,11S)-8-hydroxy-3,6-dimethyl-1,2,3,4,5,6-hexahydro-2,6-methanobenzo[d]azocin-11-yl)amino)ethyl)benzenesulfonamide]	> 20	27.4 ± 4.2	85.3 ± 5.93	36.8 ± 12.1	40.8 ± 2.76	85.3 ± 4.98	> 20	4.6 ± 0.4	> 20	0	16.8 ± 2.51			
CN1CC[C@]2(C)c3cc(O)ccc3C[C@H]1[C@H]2NCCc1ccc(S(N)(=O)=O)cc1 [Compound 93, 4-(2-(((2S,6R,11S)-8-hydroxy-3,6-dimethyl-1,2,3,4,5,6-hexahydro-2,6-methanobenzo[d]azocin-11-yl)amino)ethyl)benzenesulfonamide]	> 20	4560 ± 743	80.7 ± 4.48	3700 ± 91.4	3140 ± 790	92 ± 4.3			> 20	2	5350 ± 541			
CN1CC[C@]2(C)c3cc(O)ccc3C[C@H]1[C@@H]2NCCc1ccc(S(N)(=O)=O)cc1 [Compound 95, 4-(2-(((2S,6R,11R)-8-hydroxy-3,6-dimethyl-1,2,3,4,5,6-hexahydro-2,6-methanobenzo[d]azocin-11-yl)amino)ethyl)benzenesulfonamide]	> 20	1440 ± 44.7	79.7 ± 8.41	1760 ± 324	2120 ± 204	78 ± 3.06			> 20	-1	4600 ± 764			
CN(C(=O)/C=C/c1ccoc1)[C@H]1C2Cc3ccc(O)cc3[C@@]1(C)CCN2CC1CC1 [Compound 83, (E)-N-((6R,11R)-3-(cyclopropylmethyl)-8-hydroxy-6-methyl-1,2,3,4,5,6-hexahydro-2,6-methanobenzo[d]azocin-11-yl)-3-(furan-3-yl)-N-methylacrylamide]				1.78 ± 0.38	10.6 ± 1.18	92.7 ± 5.21		77.7 ± 1.76			0.15 ± 0.02	0.00267 ± 0.00084		
COc1ccc2c(c1)[C@@]1(C)CCN(C)C(C2)C1N1CCCC(C(=O)O)C1 (stereo partly drawn) [Compound 74, 1-((6R)-8-methoxy-3,6-dimethyl-1,2,3,4,5,6-hexahydro-2,6-methanobenzo[d]azocin-11-yl)piperidine-3-carboxylic acid]					639 ± 147	31.7 ± 0.67		53 ± 2.31			24.1 ± 5.93		230 ± 43.8	0.637 ± 0.0651
